Measurements as given in patent US20120270237A9, “METHODS FOR THE IDENTIFICATION OF KINASE INTERACTING MOLECULES AND FOR THE PURIFICATION OF KINASE PROTEINS” (Cellzone AG, priority 2009, published 2012).

Columns and labels:
IRAK1 = IRAK1 (Homo sapiens, UniProt P51617); assay: Competition binding assay in HL60 cell lysate, antibody detection; set-up: endogenous in cells; host or cells: HL60; conditions: dose response curve, anti-IRAK1 antibody
Description: (§1) The experiment was performed as described in example 7. The test compound (or DMSO as solvent control) and diluted cell lysate were added to the affinity matrix and incubated for two hours at 4° C. After washing, captured proteins were eluted with SDS-containing sample buffer. After spotting of eluate samples onto Nitrocellulose membranes IRAK1 was detected with an anti-IRAK1 antibody and IRAK4 with anti-IRAK4 antibody followed by incubation with a secondary fluorescently labeled detection antibody.
(§2) Various concentrations of test compounds were added to HL60 lysate samples and allowed to bind to the proteins contained in the lysate sample. At the same time the affinity matrix with the immobilized compound (FIG. 3, CZC31326) was added as well in order to capture proteins not bound to the test compound. After the incubation time the beads with captured proteins were separated from the lysate. Bound proteins were then eluted and the presence of IRAK1 and IRAK4 was detected and quantitavely determined using specific antibodies and the Odyssey Infrared Detection system. […]
(§3) The kinases in the eluates were detected and quantified by spotting on Nitrocellulose membranes and using a first antibody directed against the kinase of interest and a fluorescently labeled secondary antibody (anti-mouse or anti-rabbit IRDye™ antibodies from Rockland). […]

IRAK4 = target: T1, IRAK4 (Homo sapiens, UniProt Q9NWZ3); assay: as above; set-up: endogenous in cells; host or cells: HL60; conditions: dose response curve, anti-IRAK4 antibody
T1 sequence (Q9NWZ3 1-460): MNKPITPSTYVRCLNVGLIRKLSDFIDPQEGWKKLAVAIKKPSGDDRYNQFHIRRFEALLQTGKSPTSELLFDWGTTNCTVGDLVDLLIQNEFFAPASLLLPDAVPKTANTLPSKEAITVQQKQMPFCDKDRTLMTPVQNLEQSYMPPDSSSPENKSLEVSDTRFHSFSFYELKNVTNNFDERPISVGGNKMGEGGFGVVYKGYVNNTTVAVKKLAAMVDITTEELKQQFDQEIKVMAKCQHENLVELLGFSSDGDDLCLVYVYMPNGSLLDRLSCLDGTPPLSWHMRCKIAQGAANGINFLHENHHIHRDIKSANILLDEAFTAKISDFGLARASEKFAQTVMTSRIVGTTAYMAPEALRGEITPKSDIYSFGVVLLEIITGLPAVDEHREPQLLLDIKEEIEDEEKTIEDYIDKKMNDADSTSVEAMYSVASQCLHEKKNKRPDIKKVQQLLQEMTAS
Description: as §1, §2, §3

IRAK1, sequence (P51617 whole entry): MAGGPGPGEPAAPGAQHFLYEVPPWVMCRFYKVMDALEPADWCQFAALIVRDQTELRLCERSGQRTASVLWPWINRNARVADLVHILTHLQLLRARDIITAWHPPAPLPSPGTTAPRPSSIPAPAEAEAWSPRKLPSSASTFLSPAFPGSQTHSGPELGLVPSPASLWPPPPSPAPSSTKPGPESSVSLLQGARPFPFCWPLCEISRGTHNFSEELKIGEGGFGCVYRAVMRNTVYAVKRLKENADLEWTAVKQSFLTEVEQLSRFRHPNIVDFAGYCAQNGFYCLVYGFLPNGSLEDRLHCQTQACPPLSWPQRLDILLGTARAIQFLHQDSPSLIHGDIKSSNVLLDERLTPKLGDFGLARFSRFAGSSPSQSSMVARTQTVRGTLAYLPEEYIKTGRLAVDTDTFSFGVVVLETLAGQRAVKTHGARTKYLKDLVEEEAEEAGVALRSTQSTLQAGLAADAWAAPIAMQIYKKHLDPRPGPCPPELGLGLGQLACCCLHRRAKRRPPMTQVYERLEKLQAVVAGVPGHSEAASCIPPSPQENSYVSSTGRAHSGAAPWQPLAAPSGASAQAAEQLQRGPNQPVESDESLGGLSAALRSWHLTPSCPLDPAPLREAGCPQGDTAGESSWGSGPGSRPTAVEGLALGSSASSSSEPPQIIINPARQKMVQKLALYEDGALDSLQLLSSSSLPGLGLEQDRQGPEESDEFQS

## CS(=O)(=O)Nc1ccccc1Nc1nc(Nc2cccc(OCCN)c2)ncc1Cl [CZC31326, N-(2-(2-(3-(2-aminoethoxy)phenylamino)-5-chloropyrimidin-4-ylamino)phenyl)methanesulfonamide]
IRAK1
  IC50: 0.15 µM
IRAK4
  IC50: 0.04 µM
